Experimental data reported in EP0614465B1, “HYBRID PROTEIN BETWEEN CS FROM […] HBsAG” (SMITHKLINE BEECHAM BIOLOGICALS S.A., priority 1991, dated 1993).

System: R32tet32 antigen
Experiment: immunogenicity in mice: anti-R32tet32 (anti-repeat) antibody titer by ELISA
Type: in vivo, Balb/C mice
Conditions: effect of 3D-MPL (50 µg/dose) added to (RTS,S) on A1(OH)3

For “3 Deacylated monophosphoryl lipid A [3D-MPL]”, the “primary antibody response in mice” value was “enhanced”.
